Laboratory results taken from patent US20070010671A1, “Novel quinazoline derivatives and methods of treatment related to the use thereof” (priority 2003, published 2007).

Molecular target: MCH receptor (Homo sapiens, UniProt Q99705)
Test: High throughput functional screening FLIPR/FDSS6000: inhibition of MCH-evoked intracellular Ca2+ changes
Assay type: cell-based
Conditions: class by percent of control at 10^-7 M or IC50
How it was run: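 Seed cells the day before, then load them with Fluo4-AM for one hour at 37° C and wash in HEPES-buffered HBSS, pH 7.4. Add compound for 3 min, then stimulate with 50 nM MCH. Monitor the calcium transient for 290 s.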

Row | Compound | class
1 | CC(C)c1ccccc1NC(=O)NC[C@H]1CC[C@@H](Nc2nc(N(C)C)c3ccccc3n2)CC1 [compound 502, N-[(cis-4-{[4-(dimethylamino)quinazolin-2-yl]amino}cyclohexyl)methyl]-N′-(2-isopropylphenyl)urea] | 1 (Class 1: The value of percent of control at 10^−7 M was less than 40% or the value of IC50 was less than 50 nM.)
2 | COc1cc([N+](=O)[O-])ccc1NC(=O)NC[C@H]1CC[C@@H](Nc2nc(N(C)C)c3ccccc3n2)CC1 [compound 503] | 3 (Class 3: The value of percent of control at 10^−7 M was more than 60% or the value of IC50 was more than 200 nM.)
3 | COc1ccc(C)cc1NC(=O)NC[C@H]1CC[C@@H](Nc2nc(N(C)C)c3ccccc3n2)CC1 [compound 504] | 1 (Class 1: The value of percent of control at 10^−7 M was less than 40% or the value of IC50 was less than 50 nM.)
4 | COc1ccc([N+](=O)[O-])cc1NC(=O)NC[C@H]1CC[C@@H](Nc2nc(N(C)C)c3ccccc3n2)CC1 [compound 505, N-[(cis-4-{[4-(dimethylamino)quinazolin-2-yl]amino}cyclohexyl)methyl]-N′-(2-methoxy-5-nitrophenyl)urea] | 2 (Class 2: The value of percent of control at 10^−7 M was from 40% to 60% or the value of IC50 was from 50 nM to 200 nM.)
5 | Cc1c(NC(=O)NC[C@H]2CC[C@@H](Nc3nc(N(C)C)c4ccccc4n3)CC2)cccc1[N+](=O)[O-] [compound 506, N-[(cis-4-{[4-(dimethylamino)quinazolin-2-yl]amino}cyclohexyl)methyl]-N′-(2-methyl-3-nitrophenyl)urea] | 1 (Class 1: The value of percent of control at 10^−7 M was less than 40% or the value of IC50 was less than 50 nM.)
6 | Cc1cccc([N+](=O)[O-])c1NC(=O)NC[C@H]1CC[C@@H](Nc2nc(N(C)C)c3ccccc3n2)CC1 [compound 509, N-[(cis-4-{[4-(dimethylamino)quinazolin-2-yl]amino}cyclohexyl)methyl]-N′-(2-methyl-6-nitrophenyl)urea] | 1 (Class 1: The value of percent of control at 10^−7 M was less than 40% or the value of IC50 was less than 50 nM.)
7 | Cc1ccccc1CNC(=O)NC[C@H]1CC[C@@H](Nc2nc(N(C)C)c3ccccc3n2)CC1 [compound 510, N-[(cis-4-{[4-(dimethylamino)quinazolin-2-yl]amino}cyclohexyl)methyl]-N′-(2-methylbenzyl)urea] | 2 (Class 2: The value of percent of control at 10^−7 M was from 40% to 60% or the value of IC50 was from 50 nM to 200 nM.)
8 | CN(C)c1nc(N[C@H]2CC[C@@H](CNC(=O)Nc3ccc4ccccc4c3)CC2)nc2ccccc12 [compound 511] | 3 (Class 3: The value of percent of control at 10^−7 M was more than 60% or the value of IC50 was more than 200 nM.)
9 | CN(C)c1nc(N[C@H]2CC[C@@H](CNC(=O)Nc3ccccc3[N+](=O)[O-])CC2)nc2ccccc12 [compound 512, N-[(cis-4-{[4-(dimethylamino)quinazolin-2-yl]amino}cyclohexyl)methyl]-N′-(2-nitrophenyl)urea] | 2 (Class 2: The value of percent of control at 10^−7 M was from 40% to 60% or the value of IC50 was from 50 nM to 200 nM.)
10 | CCCc1ccccc1NC(=O)NC[C@H]1CC[C@@H](Nc2nc(N(C)C)c3ccccc3n2)CC1 [compound 513, N-[(cis-4-{[4-(dimethylamino)quinazolin-2-yl]amino}cyclohexyl)methyl]-N′-(2-propylphenyl)urea] | 1 (Class 1: The value of percent of control at 10^−7 M was less than 40% or the value of IC50 was less than 50 nM.)
11 | CN(C)c1nc(N[C@H]2CC[C@@H](CNC(=O)Nc3ccccc3Oc3ccccc3)CC2)nc2ccccc12 [compound 514, N-[(cis-4-{[4-(dimethylamino)quinazolin-2-yl]amino}cyclohexyl)methyl]-N′-(2-phenoxyphenyl)urea] | 2 (Class 2: The value of percent of control at 10^−7 M was from 40% to 60% or the value of IC50 was from 50 nM to 200 nM.)
12 | Cc1cccc(C(C)(C)C)c1NC(=O)NC[C@H]1CC[C@@H](Nc2nc(N(C)C)c3ccccc3n2)CC1 [compound 515, N-(2-tert-butyl-6-methylphenyl)-N′-[(cis-4-{[4-(dimethylamino)quinazolin-2-yl]amino}cyclohexyl)methyl]urea] | 1 (Class 1: The value of percent of control at 10^−7 M was less than 40% or the value of IC50 was less than 50 nM.)
13 | CN(C)c1nc(N[C@H]2CC[C@@H](CNC(=O)Nc3ccccc3C(C)(C)C)CC2)nc2ccccc12 [compound 516, N-(2-tert-butylphenyl)-N′-[(cis-4-{[4-(dimethylamino)quinazolin-2-yl]amino}cyclohexyl)methyl]urea] | 1 (Class 1: The value of percent of control at 10^−7 M was less than 40% or the value of IC50 was less than 50 nM.)
14 | CSc1cccc(NC(=O)NC[C@H]2CC[C@@H](Nc3nc(N(C)C)c4ccccc4n3)CC2)c1 [compound 517, N-[(cis-4-{[4-(dimethylamino)quinazolin-2-yl]amino}cyclohexyl)methyl]-N′-[3-(methylthio)phenyl]urea] | 2 (Class 2: The value of percent of control at 10^−7 M was from 40% to 60% or the value of IC50 was from 50 nM to 200 nM.)
15 | CN(C)c1nc(N[C@H]2CC[C@@H](CNC(=O)Nc3cccc(SC(F)(F)F)c3)CC2)nc2ccccc12 [compound 518] | 3 (Class 3: The value of percent of control at 10^−7 M was more than 60% or the value of IC50 was more than 200 nM.)
16 | CN(C)c1nc(N[C@H]2CC[C@@H](CNC(=O)Nc3ccc4c(c3)OCO4)CC2)nc2ccccc12 [compound 519] | 3 (Class 3: The value of percent of control at 10^−7 M was more than 60% or the value of IC50 was more than 200 nM.)

Row | Compound | class
17 | COc1cc(NC(=O)NC[C@H]2CC[C@@H](Nc3nc(N(C)C)c4ccccc4n3)CC2)cc(OC)c1OC [compound 520] | 3 (Class 3: The value of percent of control at 10^−7 M was more than 60% or the value of IC50 was more than 200 nM.)
18 | CN(C)c1nc(N[C@H]2CC[C@@H](CNC(=O)NCc3ccc(Cl)c(Cl)c3)CC2)nc2ccccc12 [compound 521] | 3 (Class 3: The value of percent of control at 10^−7 M was more than 60% or the value of IC50 was more than 200 nM.)
19 | CN(C)c1nc(N[C@H]2CC[C@@H](CNC(=O)Nc3ccc(F)c(F)c3)CC2)nc2ccccc12 [compound 522, N-(3,4-difluorophenyl)-N′-[(cis-4-{[4-(dimethylamino)quinazolin-2-yl]amino}cyclohexyl)methyl]urea] | 1 (Class 1: The value of percent of control at 10^−7 M was less than 40% or the value of IC50 was less than 50 nM.)
20 | COc1ccc(NC(=O)NC[C@H]2CC[C@@H](Nc3nc(N(C)C)c4ccccc4n3)CC2)cc1OC [compound 523] | 3 (Class 3: The value of percent of control at 10^−7 M was more than 60% or the value of IC50 was more than 200 nM.)
21 | COc1cc(NC(=O)NC[C@H]2CC[C@@H](Nc3nc(N(C)C)c4ccccc4n3)CC2)cc(OC)c1 [compound 525] | 2 (Class 2: The value of percent of control at 10^−7 M was from 40% to 60% or the value of IC50 was from 50 nM to 200 nM.)
22 | Cc1cc(C)cc(NC(=O)NC[C@H]2CC[C@@H](Nc3nc(N(C)C)c4ccccc4n3)CC2)c1 [compound 526] | 3 (Class 3: The value of percent of control at 10^−7 M was more than 60% or the value of IC50 was more than 200 nM.)
23 | COC(=O)c1cccc(NC(=O)NC[C@H]2CC[C@@H](Nc3nc(N(C)C)c4ccccc4n3)CC2)c1 [compound 527] | 3 (Class 3: The value of percent of control at 10^−7 M was more than 60% or the value of IC50 was more than 200 nM.)
24 | Cc1c(Cl)cccc1NC(=O)NC[C@H]1CC[C@@H](Nc2nc(N(C)C)c3ccccc3n2)CC1 [compound 528] | 1 (Class 1: The value of percent of control at 10^−7 M was less than 40% or the value of IC50 was less than 50 nM.)
25 | CN(C)c1nc(N[C@H]2CC[C@@H](CNC(=O)Nc3ccc(F)c(Cl)c3)CC2)nc2ccccc12 [compound 529] | 1 (Class 1: The value of percent of control at 10^−7 M was less than 40% or the value of IC50 was less than 50 nM.)
26 | COc1ccc(NC(=O)NC[C@H]2CC[C@@H](Nc3nc(N(C)C)c4ccccc4n3)CC2)cc1Cl [compound 530] | 3 (Class 3: The value of percent of control at 10^−7 M was more than 60% or the value of IC50 was more than 200 nM.)
27 | CCc1cccc(NC(=O)NC[C@H]2CC[C@@H](Nc3nc(N(C)C)c4ccccc4n3)CC2)c1 [compound 531, N-[(cis-4-{[4-(dimethylamino)quinazolin-2-yl]amino}cyclohexyl)methyl]-N′-(3-ethylphenyl)urea] | 2 (Class 2: The value of percent of control at 10^−7 M was from 40% to 60% or the value of IC50 was from 50 nM to 200 nM.)
28 | CN(C)c1nc(N[C@H]2CC[C@@H](CNC(=O)Nc3cc(F)cc(C(F)(F)F)c3)CC2)nc2ccccc12 [compound 532] | 2 (Class 2: The value of percent of control at 10^−7 M was from 40% to 60% or the value of IC50 was from 50 nM to 200 nM.)
29 | CN(C)c1nc(N[C@H]2CC[C@@H](CNC(=O)NCc3cccc(F)c3)CC2)nc2ccccc12 [compound 533, N-[(cis-4-{[4-(dimethylamino)quinazolin-2-yl]amino}cyclohexyl)methyl]-N′-(3-fluorobenzyl)urea] | 2 (Class 2: The value of percent of control at 10^−7 M was from 40% to 60% or the value of IC50 was from 50 nM to 200 nM.)
30 | CN(C)c1nc(N[C@H]2CC[C@@H](CNC(=O)Nc3cccc(Oc4ccccc4)c3)CC2)nc2ccccc12 [compound 534] | 3 (Class 3: The value of percent of control at 10^−7 M was more than 60% or the value of IC50 was more than 200 nM.)
31 | CCCCOC(=O)c1ccc(NC(=O)NC[C@H]2CC[C@@H](Nc3nc(N(C)C)c4ccccc4n3)CC2)cc1 [compound 535] | 3 (Class 3: The value of percent of control at 10^−7 M was more than 60% or the value of IC50 was more than 200 nM.)
32 | CN(C)c1nc(N[C@H]2CC[C@@H](CNC(=O)Nc3ccc(C(F)(F)F)cc3)CC2)nc2ccccc12 [compound 536] | 3 (Class 3: The value of percent of control at 10^−7 M was more than 60% or the value of IC50 was more than 200 nM.)
